Structures can show the parent of a compound that is named as a salt.
Molecular target: T1, bovine lactoferrin (bLf) (Bos taurus, UniProt P24627)
T1 construct: gene LTF; 80 kDa; single polypeptide chain
Test: microscale thermophoresis
Format: binding

T1 sequence (P24627 20-708): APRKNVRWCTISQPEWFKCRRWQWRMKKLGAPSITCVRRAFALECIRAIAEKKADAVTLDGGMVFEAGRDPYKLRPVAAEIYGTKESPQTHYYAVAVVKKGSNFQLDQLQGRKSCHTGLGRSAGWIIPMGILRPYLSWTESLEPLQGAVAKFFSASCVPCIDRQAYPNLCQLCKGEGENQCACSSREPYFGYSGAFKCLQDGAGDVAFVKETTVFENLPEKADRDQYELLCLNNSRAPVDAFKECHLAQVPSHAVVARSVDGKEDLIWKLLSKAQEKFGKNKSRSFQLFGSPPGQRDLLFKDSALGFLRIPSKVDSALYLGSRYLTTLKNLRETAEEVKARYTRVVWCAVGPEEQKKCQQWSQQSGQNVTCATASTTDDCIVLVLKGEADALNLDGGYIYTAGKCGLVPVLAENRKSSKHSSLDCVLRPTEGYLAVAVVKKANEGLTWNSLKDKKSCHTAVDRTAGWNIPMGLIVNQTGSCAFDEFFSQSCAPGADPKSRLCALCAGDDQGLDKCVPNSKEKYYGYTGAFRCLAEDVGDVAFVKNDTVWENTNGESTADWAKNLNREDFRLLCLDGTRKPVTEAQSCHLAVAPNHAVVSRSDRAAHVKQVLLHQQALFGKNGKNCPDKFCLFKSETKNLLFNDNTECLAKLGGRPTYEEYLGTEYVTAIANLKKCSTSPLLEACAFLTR

CN(C)[C@@H]1C(O)=C(C(N)=O)C(=O)[C@@]2(O)C(O)=C3C(=O)c4c(O)cccc4[C@@](C)(O)[C@H]3C[C@@H]12 [Tetracycline hydrochloride]
Kd: 35.2 µM
